# Measured values as given in patent US12662491B2 (Redona Therapeutics, Inc., priority 2020, dated 2026).
# Where two headings read alike, the source gives them in different places.
# Biological target: T1, Zcchc11 enzyme (Homo sapiens, UniProt Q5TAX3)
# T1 construct: made in house; host or cells: HEK293 cells (Zcchc11); E. coli Rosetta II (LIN28A)
# T1 sequence (Q5TAX3 212-1420): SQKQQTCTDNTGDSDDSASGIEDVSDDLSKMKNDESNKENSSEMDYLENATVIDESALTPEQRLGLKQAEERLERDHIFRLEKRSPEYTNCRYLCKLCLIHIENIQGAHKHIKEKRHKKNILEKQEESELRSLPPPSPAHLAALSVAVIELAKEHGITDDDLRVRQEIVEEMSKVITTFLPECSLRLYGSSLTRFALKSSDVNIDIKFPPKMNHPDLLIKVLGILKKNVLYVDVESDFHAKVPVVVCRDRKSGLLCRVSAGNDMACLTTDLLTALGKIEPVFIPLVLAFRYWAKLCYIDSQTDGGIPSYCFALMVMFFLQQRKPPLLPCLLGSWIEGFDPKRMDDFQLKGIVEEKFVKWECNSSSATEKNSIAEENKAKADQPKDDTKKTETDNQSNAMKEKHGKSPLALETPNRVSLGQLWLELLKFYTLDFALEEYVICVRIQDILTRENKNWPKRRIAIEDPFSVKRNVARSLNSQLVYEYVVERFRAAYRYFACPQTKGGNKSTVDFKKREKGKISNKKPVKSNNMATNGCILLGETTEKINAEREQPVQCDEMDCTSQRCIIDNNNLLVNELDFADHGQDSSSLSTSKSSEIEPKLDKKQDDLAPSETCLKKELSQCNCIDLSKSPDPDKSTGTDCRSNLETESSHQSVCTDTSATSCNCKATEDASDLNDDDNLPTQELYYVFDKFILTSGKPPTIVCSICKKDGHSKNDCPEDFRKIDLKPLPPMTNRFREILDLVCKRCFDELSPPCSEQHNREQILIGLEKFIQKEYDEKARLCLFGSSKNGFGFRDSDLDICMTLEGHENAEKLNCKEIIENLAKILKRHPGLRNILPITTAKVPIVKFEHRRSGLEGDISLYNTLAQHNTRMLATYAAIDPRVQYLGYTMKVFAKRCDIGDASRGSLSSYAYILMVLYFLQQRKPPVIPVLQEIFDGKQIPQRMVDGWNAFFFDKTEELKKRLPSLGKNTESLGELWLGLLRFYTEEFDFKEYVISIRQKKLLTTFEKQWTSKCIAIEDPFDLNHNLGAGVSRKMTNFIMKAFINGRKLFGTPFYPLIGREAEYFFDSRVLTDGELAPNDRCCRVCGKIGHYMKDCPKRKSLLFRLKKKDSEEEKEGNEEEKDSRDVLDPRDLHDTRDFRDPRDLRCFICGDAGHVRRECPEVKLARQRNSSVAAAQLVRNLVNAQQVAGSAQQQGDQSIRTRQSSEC
# Assay: TUTase assay (Zcchc11 assay, Lin28a-dependent polyuridylation of pre-let-7)
# Type: biochemical
# Conditions: read-out: Potency Lin28a-dep Z11 IC50
# Summary of the method: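 Polyuridylation measured as fluorescein loss when a rhodamine-labelled A20 probe anneals to U-tails added to fluorescein pre-let-7 (2 nM). Reaction: truncated Zcchc11 0.2 nM, E. coli-made LIN28A 10 nM, UTP 5 uM, HEPES pH 7.3, room temperature. Initial rates fitted to four-parameter IC50.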
# [1] = Lin28a-dependent Zcchc11 (Z11) TUTase assay
# [2] = Lin28a-dependent Zcchc11 (Z11) TUTase activity
IC50 [1],IC50 [2],Molecule,further results
–,≤ 1000 nM,"CN(C)c1ccc(Cl)c(OC[C@H]2C[C@H]3C[C@H]3N2c2cc3c(cc2F)c(=O)c(C(=O)O)cn3-c2ccc(N3CC(N(C)C)C3)nc2)n1 [Compound 338, 7-[(1R,3R,5R)-3-({[3-chloro-6-(dimethyl-amino)pyridin-2-yl]oxy}methyl)-2-azabicyclo [3.1.0]hexan-2-yl]-1-{6-[3-(dimethyl-amino)azetidin-1-yl]pyridin-3-yl}-6-fluoro-4-oxoquinoline-3-carboxylic acid]",–
–,≤ 1000 nM,"rac-6- chloro-7- ((2R,3S)-2- (((3- chloropyridin- 2- yl)oxy) methyl)-3- methyl- pyrrolidin-1- yl)-1-(6-(3- (dimethyl- amino) azetidin-1- yl)pyridin- 3-yl)-4- oxo-1,4- dihydro- quinoline-3- carboxylic acic [Compound 260]",–
–,≤ 1000 nM,"COc1ccc(Cl)c(OCC2N(c3cc4c(cc3Cl)c(=O)c(C(=O)O)cn4-c3cc(N)cnn3)CCC2(C)C)n1 (centres unmarked) [Compound 229, 1-(5-Amino-pyridazin-3-yl)-6-chloro-7-(2-(((3-chloro-6-methoxy-pyridin-2-yl)oxy)methyl)-3,3-dimethyl-pyrrolidin-1-yl)-4-oxo-1,4-dihydro-quinoline-3-carboxylic acid]",–
≤ 1000 nM,–,"O=C(O)c1cn(-c2ccc(C3(O)COC3)nc2)c2cc(N3CCC[C@@H]3COc3ncccc3Cl)c(Cl)cc2c1=O [Example 607, (R)-6-chloro-7-(2-(((3-chloropyridin-2-yl)oxy)methyl)pyrrolidin-1-yl)-1-(6-(3-hydroxy-oxetan-3-yl)pyridin-3-yl)-4-oxo-1,4-dihydroquinoline-3-carboxylic acid]",–
–,≤ 1000 nM,"O=C(O)c1cn(-c2ccccc2)c2cc(N3CCC[C@@H]3COc3ccccn3)c(F)cc2c1=O [Compound 85, (R)-6-fluoro-4-oxo-1-phenyl-7-(2-((pyridin-2-yloxy)methyl)pyrrolidin-1-yl)-1,4-dihydro-quinoline-3-carboxylic acid]",–
–,≤ 1000 nM,"CN(C)C1CN(c2ccc(-n3cc(C(=O)O)c(=O)c4cc(Cl)c(N5CCC(C)(C)C5COc5nc(OC6CC6)ccc5Cl)cc43)cn2)C1 (centres unmarked) [Compound 272, 6-chloro-7-(2-(((3-chloro-6-cycloprop-oxypyridin-2-yl)oxy)methyl)-3,3-dimethyl-pyrrolidin-1-yl)-1-(6-(3-(dimethyl-amino)azetidin-1-yl)pyridin-3-yl)-4-oxo-1,4-dihydro-quinoline-3-carboxylic acid]",–
–,1000 to 10000 nM,"O=C(O)c1cn(-c2ccccc2CO)c2cc(N3CCC[C@@H]3COc3ccccn3)c(F)cc2c1=O [Compound 160, (R)-6-fluoro-1-(2-(hydroxy-methyl)phenyl)-4-oxo-7-(2-((pyridin-2-yloxy)methyl)pyrrolidin-1-yl)-1,4-dihydro-quinoline-3-carboxylic acid]",–
–,≤ 1000 nM,"O=C(O)c1cn(-c2cnccn2)c2cc(N3CCC[C@@H]3COc3ncccc3Cl)c(F)cc2c1=O [Compound 240, 7-[(2R)-2-[[(3-chloropyridin-2-yl)oxy]methyl]pyrrolidin-1-yl]-6-fluoro-4-oxo-1-(pyrazin-2-yl)quinoline-3-carboxylic acid]",–
–,–,"O=C(O)c1cn(-c2cnccn2)c2cc(N3C[C@@H](F)C[C@@H]3COc3ncccc3Cl)c(Cl)cc2c1=O [Example 41, 6-chloro-7-[(2R,4S)-2-{[(3-chloropyridin-2-yl)oxy]methyl}-4-fluoropyrrolidin-1-yl]-4-oxo-1-(pyrazin-2-yl)-1,4-dihydroquinoline-3-carboxylic acid]","IC50 (LIN28A 10 nM, Zcchc11 0.2 nM, 5′-fluorescein pre-let-7 miRNA 2 nM, UTP 5 uM, room temperature, 30 minutes pre-incubation): ≤ 1000 nM"
≤ 1000 nM,–,"O=C(O)c1cn(-c2ccc(N3CCCCC3)nc2)c2cc(N3CCC[C@@H]3COc3ncccc3Cl)c(Cl)cc2c1=O [Example 430, (R)-6-chloro-7-(2-(((3-chloropyridin-2-yl)oxy)methyl)pyrrolidin-1-yl)-4-oxo-1-(6-(piperidin-1-yl)pyridin-3-yl)-1,4-dihydroquinoline-3-carboxylic acid]",–
≤ 1000 nM,–,"Cn1cc(-n2cc(C(=O)O)c(=O)c3cc(Cl)c(N4CCC[C@@H]4COc4ncccc4Cl)cc32)cn1 [Example 436, (R)-6-chloro-7-(2-(((3-chloropyridin-2-yl)oxy)methyl)pyrrolidin-1-yl)-1-(1-methyl-1H-pyrazol-4-yl)-4-oxo-1,4-dihydroquinoline-3-carboxylic acid]",–
–,≤ 1000 nM,"O=C(O)c1cn(-c2ccc(N3CCC3)nc2)c2cc(N3CCC[C@@H]3COc3ncccc3F)c(Cl)cc2c1=O [Compound 289, (R)-1-(6-(azetidin-1-yl)pyridin-3-yl)-6-chloro-7-(2-(((3-fluoropyridin-2-yl)oxy)methyl)pyrrolidin-1-yl)-4-oxo-1,4-dihydro-quinoline-3-carboxylic acid]",–
≤ 1000 nM,–,"O=C(O)c1cn(-c2cnccn2)c2cc(N3C[C@H](F)C[C@@H]3COc3ncccc3Cl)c(Cl)cc2c1=O [Example 590, 6-chloro-7-((2R,4R)-2-(((3-chloropyridin-2-yl)oxy)methyl)-4-fluoropyrrolidin-1-yl)-4-oxo-1-(pyrazin-2-yl)-1,4-dihydroquinoline-3-carboxylic acid]",–
–,≤ 1000 nM,"O=C(O)c1cn(-c2ccccc2)c2cc(N3CCC[C@@H]3COc3ncccc3C(F)(F)F)c(F)cc2c1=O [Compound 100, (R)-6-fluoro-4-oxo-1-phenyl-7-(2-(((3-(trifluoro-methyl)pyridin-2-yl)oxy)methyl)pyrrolidin-1-yl)-1,4-dihydro-quinoline-3-carboxylic acid]",–
–,≤ 1000 nM,"CN(C)C1CN(c2ccc(-n3cc(C(=O)O)c(=O)c4cc(C#N)c(N5CCC[C@@H]5COc5ncccc5Cl)nc43)cn2)C1 [Compound 250, 7-[(2R)-2-[[(3-chloropyridin-2-yl)oxy]methyl]pyrrolidin-1-yl]-6-cyano-1-[6-[3-(dimethyl-amino)azetidin-1-yl]pyridin-3-yl]-4-oxo-1,8-naphthyridine-3-carboxylic acid]",–
–,≤ 1000 nM,"CN(C)C1CN(c2ccc(-n3cc(C(=O)O)c(=O)c4cc(C#N)c(N5CCC[C@]5(C)COc5ncccc5F)cc43)cn2)C1 [Compound 284, (R)-6-cyano-1-(6-(3-(dimethyl-amino)azetidin-1-yl)pyridin-3-yl)-7-(2-(((3-fluoropyridin-2-yl)oxy)methyl)-2-methyl-pyrrolidin-1-yl)-4-oxo-1,4-dihydro-quinoline-3-carboxylic acid]",–
–,1000 to 10000 nM,"O=C(O)c1cn(C2CC2)c2cc(N3CCC[C@@H]3COc3ccccn3)c(Cl)cc2c1=O [Compound 111, (R)-6-chloro-1-cyclopropyl-4-oxo-7-(2-((pyridin-2-yloxy)methyl)pyrrolidin-1-yl)-1,4-dihydro-quinoline-3-carboxylic acid]",–
–,≤ 1000 nM,"Cc1cccnc1OC[C@H]1CCCN1c1cc2c(cc1F)c(=O)c(C(=O)O)cn2C1CC1 [Compound 102, (R)-1-cyclopropyl-6-fluoro-7-(2-(((3-methyl-pyridin-2-yl)oxy)methyl)pyrrolidin-1-yl)-4-oxo-1,4-dihydro-quinoline-3-carboxylic acid]",–
≤ 1000 nM,–,"COc1ccc(Cl)c(OC[C@H]2CC(C)(C)CN2c2cc3c(cc2Cl)c(=O)c(C(=O)O)cn3-c2ccnc(N)c2)n1 [Example 650, (R)-1-(2-aminopyridin-4-yl)-6-chloro-7-(2-(((3-chloro-6-methoxypyridin-2-yl)oxy)methyl)-4,4-dimethylpyrrolidin-1-yl)-4-oxo-1,4-dihydroquinoline-3-carboxylic acid]",–

Molecule,IC50 [1],IC50 [2],further results
"CN(C)C1CN(c2ccc(-n3cc(C(=O)O)c(=O)c4cc(Cl)c(N5CCC[C@@H]5COc5nc(OC(C)(C)C)ccc5Cl)cc43)cn2)C1 [Example 658, (R)-7-(2-(((6-(tert-butoxy)-3-chloropyridin-2-yl)oxy)methyl)pyrrolidin-1-yl)-6-chloro-1-(6-(3-(dimethylamino)azetidin-1-yl)pyridin-3-yl)-4-oxo-1,4-dihydroquinoline-3-carboxylic acid]",≤ 1000 nM,–,–
